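These data come from cells grown in 96-well plates and exposed to compound for 48 hours at five concentrations. GI50: concentration for 50% inhibition of growth. TGI marks complete inhibition of growth.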 Where a SMILES comes first, the peptide text is derived from it. [ ]: non-standard residue; d: D form. The star is where a group is joined. ξ: configuration not given here. ξNMe2Val = CC(C)C(C(=O)*)N(C)C; NMeV = CN[CH](C(=O)O)C(C)C; NHBn = c1ccc(CN*)cc1
How the values were obtained:
Experiment in all cases: NCI-60 cell line screen, 48 h
SF-539 CNS = system: SF-539 CNS
T-47D breast = system: T-47D breast
SN12C renal = system: SN12C renal
CCRF-CEM leukemia = system: CCRF-CEM leukemia
NCI/ADR-RES ovarian = system: NCI/ADR-RES ovarian
CAKI-1 renal = system: CAKI-1 renal
SK-OV-3 ovarian = system: SK-OV-3 ovarian
SF-268 CNS = system: SF-268 CNS
HCC-2998 colon = system: HCC-2998 colon
HS 578T breast = system: HS 578T breast
HL-60(TB) leukemia = system: HL-60(TB) leukemia
RPMI-8226 leukemia = system: RPMI-8226 leukemia
SNB-19 CNS = system: SNB-19 CNS
UACC-62 melanoma = system: UACC-62 melanoma
OVCAR-8 ovarian = system: OVCAR-8 ovarian
COLO 205 colon = system: COLO 205 colon
HOP-92 NSCLC = system: HOP-92 NSCLC
SR leukemia = system: SR leukemia
A549 NSCLC = system: A549 NSCLC
SF-295 CNS = system: SF-295 CNS
EKVX NSCLC = system: EKVX NSCLC
M14 melanoma = system: M14 melanoma
SK-MEL-2 melanoma = system: SK-MEL-2 melanoma
A498 renal = system: A498 renal
MDA-MB-435 = system: MDA-MB-435
IGROV1 ovarian = system: IGROV1 ovarian
MOLT-4 leukemia = system: MOLT-4 leukemia
MCF7 breast = system: MCF7 breast
NCI-H522 lung = system: NCI-H522 lung
OVCAR-5 ovarian = system: OVCAR-5 ovarian
KM12 colon = system: KM12 colon
786-0 renal = system: 786-0 renal
MDA-MB-231 breast = system: MDA-MB-231 breast
SW-620 colon = system: SW-620 colon
HCT-116 colon = system: HCT-116 colon
NCI-H23 lung = system: NCI-H23 lung
RXF 393 renal = system: RXF 393 renal
HT29 colon = system: HT29 colon
HOP-62 NSCLC = system: HOP-62 NSCLC
DU-145 prostate = system: DU-145 prostate
OVCAR-4 ovarian = system: OVCAR-4 ovarian
LOX IMVI melanoma = system: LOX IMVI melanoma
SNB-75 CNS = system: SNB-75 CNS
NCI-H226 lung = system: NCI-H226 lung
SK-MEL-5 melanoma = system: SK-MEL-5 melanoma
UACC-257 melanoma = system: UACC-257 melanoma
U251 CNS = system: U251 CNS
HCT-15 colon = system: HCT-15 colon
MALME-3M melanoma = system: MALME-3M melanoma
K-562 leukemia = system: K-562 leukemia
UO-31 renal = system: UO-31 renal
TK-10 renal = system: TK-10 renal
SK-MEL-28 melanoma = system: SK-MEL-28 melanoma
PC-3 prostate = system: PC-3 prostate
OVCAR-3 ovarian = system: OVCAR-3 ovarian
BT-549 breast = system: BT-549 breast
NCI-H460 lung = system: NCI-H460 lung
MDA-N = system: MDA-N
ACHN renal = system: ACHN renal

## CN[C@H]1CN(c2ccc3c(=O)c(C(=O)O)cn(-c4nccs4)c3n2)C[C@@H]1OC
SF-539 CNS
  GI50: 0.592 µM
  TGI: 4.14 µM
T-47D breast
  GI50: 1.23 µM
  TGI: 7.76 µM
SN12C renal
  GI50: 0.364 µM
  TGI: 5.69 µM
CCRF-CEM leukemia
  GI50: 0.316 µM
  TGI: > 22.9 µM
NCI/ADR-RES ovarian
  GI50: 1.3 µM
  TGI: 7.56 µM
CAKI-1 renal
  GI50: 0.271 µM
  TGI: 2.24 µM
SK-OV-3 ovarian
  GI50: 1.08 µM
  TGI: 5.29 µM
SF-268 CNS
  GI50: 0.706 µM
  TGI: 6.49 µM
HCC-2998 colon
  GI50: 0.856 µM
  TGI: 3.58 µM
HS 578T breast
  GI50: 1.49 µM
  TGI: 6.68 µM
HL-60(TB) leukemia
  GI50: 0.292 µM
  TGI: 2.07 µM
RPMI-8226 leukemia
  GI50: 1.08 µM
  TGI: > 24 µM
SNB-19 CNS
  GI50: 0.376 µM
  TGI: 14.2 µM
UACC-62 melanoma
  GI50: 0.359 µM
  TGI: 1.95 µM
OVCAR-8 ovarian
  GI50: 0.457 µM
  TGI: 3.73 µM
COLO 205 colon
  GI50: 1.21 µM
  TGI: 2.66 µM
HOP-92 NSCLC
  GI50: 0.176 µM
  TGI: 0.938 µM
SR leukemia
  GI50: 0.0508 µM
  TGI: 0.777 µM
A549 NSCLC
  GI50: 0.511 µM
  TGI: 2.76 µM
SF-295 CNS
  GI50: 0.332 µM
  TGI: 2.37 µM
EKVX NSCLC
  GI50: 1.97 µM
  TGI: 7.17 µM
M14 melanoma
  GI50: 0.783 µM
  TGI: 2.34 µM
SK-MEL-2 melanoma
  GI50: 1.51 µM
  TGI: 3.56 µM
A498 renal
  GI50: 0.273 µM
  TGI: 2.01 µM
MDA-MB-435
  GI50: 1.29 µM
  TGI: 3.51 µM
IGROV1 ovarian
  GI50: 0.353 µM
  TGI: 7.15 µM
MOLT-4 leukemia
  GI50: 0.126 µM
  TGI: 1 µM
MCF7 breast
  GI50: 0.358 µM
  TGI: 5.07 µM
NCI-H522 lung
  GI50: 0.733 µM
  TGI: 2.98 µM
OVCAR-5 ovarian
  GI50: 2.31 µM
  TGI: 6.45 µM
KM12 colon
  GI50: 1.37 µM
  TGI: 13.9 µM
786-0 renal
  GI50: 0.426 µM
  TGI: 6.18 µM
MDA-MB-231 breast
  GI50: 1.52 µM
  TGI: 6.92 µM
SW-620 colon
  GI50: 0.633 µM
  TGI: 3.54 µM
HCT-116 colon
  GI50: 0.437 µM
  TGI: 4.58 µM
NCI-H23 lung
  GI50: 0.34 µM
  TGI: 2.01 µM
RXF 393 renal
  GI50: 1.16 µM
  TGI: 3.63 µM
HT29 colon
  GI50: 1.04 µM
  TGI: 4.2 µM
HOP-62 NSCLC
  GI50: 0.6 µM
  TGI: 3.4 µM
DU-145 prostate
  GI50: 1.28 µM
  TGI: 5.28 µM
OVCAR-4 ovarian
  GI50: 2.27 µM
  TGI: 9.22 µM
LOX IMVI melanoma
  GI50: 0.266 µM
  TGI: 3.4 µM
SNB-75 CNS
  GI50: 0.637 µM
  TGI: 2.55 µM
NCI-H226 lung
  GI50: 0.632 µM
  TGI: 3.24 µM
SK-MEL-5 melanoma
  GI50: 0.831 µM
  TGI: 2.23 µM
UACC-257 melanoma
  GI50: 1.11 µM
  TGI: 2.83 µM
U251 CNS
  GI50: 0.42 µM
  TGI: 7.23 µM
HCT-15 colon
  GI50: 1.13 µM
  TGI: 7.72 µM
MALME-3M melanoma
  GI50: 0.516 µM
  TGI: 2.27 µM
K-562 leukemia
  GI50: 0.632 µM
  TGI: 5.81 µM
UO-31 renal
  GI50: 0.566 µM
  TGI: 2.93 µM
TK-10 renal
  GI50: 1.1 µM
  TGI: 4.13 µM
SK-MEL-28 melanoma
  GI50: 1.31 µM
  TGI: 3.01 µM
PC-3 prostate
  GI50: 1.65 µM
  TGI: 19.4 µM
OVCAR-3 ovarian
  GI50: 1.82 µM
  TGI: 6.48 µM
BT-549 breast
  GI50: 0.758 µM
  TGI: 3.05 µM
NCI-H460 lung
  GI50: 0.133 µM
  TGI: 1.53 µM

## CC(C)C(NC(=O)C(C(C)C)N(C)C)C(=O)N(C)C(C(=O)N1CCCC1C(=O)N1CCCC1C(=O)NCc1ccccc1)C(C)C (stereo unspecified) (ξNMe2Val-V[NMeV]PP-NHBn; configuration not given here)
CCRF-CEM leukemia
  TGI: 0.00144 µM
NCI/ADR-RES ovarian
  GI50: 0.264 µM
  TGI: 7.39 µM
MDA-N
  TGI: < 0.0001 µM
CAKI-1 renal
  TGI: > 100 µM
SK-OV-3 ovarian
  TGI: > 100 µM
SF-268 CNS
  TGI: > 100 µM
HL-60(TB) leukemia
  TGI: < 0.0001 µM
RPMI-8226 leukemia
  TGI: > 100 µM
SNB-19 CNS
  TGI: > 100 µM
UACC-62 melanoma
  TGI: 0.0105 µM
COLO 205 colon
  TGI: 0.00016 µM
A549 NSCLC
  TGI: > 100 µM
EKVX NSCLC
  GI50: < 0.0001 µM
  TGI: > 100 µM
IGROV1 ovarian
  TGI: > 100 µM
NCI-H522 lung
  TGI: 0.418 µM
ACHN renal
  TGI: > 100 µM
OVCAR-5 ovarian
  TGI: 0.206 µM
KM12 colon
  TGI: < 0.0001 µM
786-0 renal
  TGI: > 100 µM
MDA-MB-231 breast
  TGI: 0.000242 µM
SW-620 colon
  TGI: > 100 µM
NCI-H23 lung
  TGI: > 100 µM
RXF 393 renal
  TGI: > 100 µM
HOP-62 NSCLC
  TGI: > 100 µM
DU-145 prostate
  TGI: 0.0117 µM
OVCAR-4 ovarian
  TGI: > 100 µM
LOX IMVI melanoma
  TGI: 0.000253 µM
SNB-75 CNS
  TGI: 53.8 µM
SK-MEL-5 melanoma
  TGI: 0.000265 µM
U251 CNS
  TGI: 3.11 µM
MALME-3M melanoma
  TGI: > 100 µM
UO-31 renal
  TGI: > 100 µM
BT-549 breast
  TGI: 0.0788 µM
NCI-H460 lung
  TGI: 0.0227 µM

## CC1(C)OC2C(COC(c3ccccc3)(c3ccccc3)c3ccccc3)OC(c3c[nH]c4c(N)ncnc34)C2O1 (stereo unspecified)
T-47D breast
  TGI: 17.2 µM
SN12C renal
  TGI: 15.4 µM
NCI/ADR-RES ovarian
  TGI: 29 µM
MDA-N
  TGI: 11 µM
SK-OV-3 ovarian
  TGI: 17.5 µM
SF-268 CNS
  TGI: 21.4 µM
HS 578T breast
  TGI: 28.4 µM
UACC-62 melanoma
  TGI: 4.21 µM
OVCAR-8 ovarian
  TGI: 21.7 µM
COLO 205 colon
  TGI: 23.9 µM
HOP-92 NSCLC
  TGI: 18.5 µM
A549 NSCLC
  TGI: 13.9 µM
SF-295 CNS
  TGI: 7.29 µM
EKVX NSCLC
  TGI: 21.8 µM
M14 melanoma
  TGI: 9.44 µM
SK-MEL-2 melanoma
  TGI: 29.3 µM
IGROV1 ovarian
  TGI: 17 µM
NCI-H522 lung
  TGI: 17.8 µM
ACHN renal
  TGI: 13.3 µM
786-0 renal
  TGI: 4.37 µM
MDA-MB-231 breast
  TGI: 27.4 µM
SW-620 colon
  TGI: 14.1 µM
HCT-116 colon
  TGI: 15.9 µM
HT29 colon
  TGI: 7.15 µM
HOP-62 NSCLC
  TGI: 16.1 µM
DU-145 prostate
  TGI: 18.9 µM
OVCAR-4 ovarian
  TGI: 23.3 µM
LOX IMVI melanoma
  TGI: 3.26 µM
SNB-75 CNS
  TGI: 19.6 µM
SK-MEL-5 melanoma
  TGI: 3.05 µM
UACC-257 melanoma
  TGI: 17.5 µM
HCT-15 colon
  TGI: 15.2 µM
MALME-3M melanoma
  TGI: 16.8 µM
PC-3 prostate
  TGI: 10.5 µM
OVCAR-3 ovarian
  TGI: 9.26 µM
NCI-H460 lung
  TGI: 10.5 µM

Source: PubChem BioAssay (NCI)
